Results on one substance are retold here after patent publication US20180200315A1, “CANNABINOID AND CAFFEINE EMULSIFICATIONS” (priority 2016, published 2018).

The nature of the series: Emulsifier experiments with coconut oils and water (Example 2). The class given is physicochemical. As to conditions: tested as emulsifying agents; solid and liquid (MCT) coconut oils. Here is the method:
Several experiments were run using several different emulsifiers and combinations of different coconut oils: solid and liquid (MCT). (Note: liquid MCT is coconut oil that has medium chain triglyceride). Guar gum, lecithin, and cyclodextrin were tested as emulsifying agents and provided good results.

With cyclodextrin, the “emulsification of the oil and water” value was “good results”.
